The compounds below were run against GST-tagged truncated human mutant G2019S LRRK2 (Homo sapiens (Human), UniProt Q5S007, G2019S) (assay: LRRK2 G2019S Km ATP LanthaScreen assay). Details: G2019S LRRK2, 134 μM ATP (Km ATP), LRRKtide substrate.
Format: biochemical
Summary of the method: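 Ten-point compound series (highest 9.99 μM in DMSO) preincubated 15 min with 1.25 nM GST-tagged truncated human LRRK2 G2019S, then 90 min reaction at ambient temperature with 134 μM ATP (Km) and fluorescein-labelled LRRKtide, pH 8.5. Phosphorylation read as 520/495 nm emission ratio via Tb-labelled antibody; IC50 from 4P logistic regression.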

Chain of GST-tagged truncated human mutant G2019S LRRK2 (Q5S007 970-2527 G2019S): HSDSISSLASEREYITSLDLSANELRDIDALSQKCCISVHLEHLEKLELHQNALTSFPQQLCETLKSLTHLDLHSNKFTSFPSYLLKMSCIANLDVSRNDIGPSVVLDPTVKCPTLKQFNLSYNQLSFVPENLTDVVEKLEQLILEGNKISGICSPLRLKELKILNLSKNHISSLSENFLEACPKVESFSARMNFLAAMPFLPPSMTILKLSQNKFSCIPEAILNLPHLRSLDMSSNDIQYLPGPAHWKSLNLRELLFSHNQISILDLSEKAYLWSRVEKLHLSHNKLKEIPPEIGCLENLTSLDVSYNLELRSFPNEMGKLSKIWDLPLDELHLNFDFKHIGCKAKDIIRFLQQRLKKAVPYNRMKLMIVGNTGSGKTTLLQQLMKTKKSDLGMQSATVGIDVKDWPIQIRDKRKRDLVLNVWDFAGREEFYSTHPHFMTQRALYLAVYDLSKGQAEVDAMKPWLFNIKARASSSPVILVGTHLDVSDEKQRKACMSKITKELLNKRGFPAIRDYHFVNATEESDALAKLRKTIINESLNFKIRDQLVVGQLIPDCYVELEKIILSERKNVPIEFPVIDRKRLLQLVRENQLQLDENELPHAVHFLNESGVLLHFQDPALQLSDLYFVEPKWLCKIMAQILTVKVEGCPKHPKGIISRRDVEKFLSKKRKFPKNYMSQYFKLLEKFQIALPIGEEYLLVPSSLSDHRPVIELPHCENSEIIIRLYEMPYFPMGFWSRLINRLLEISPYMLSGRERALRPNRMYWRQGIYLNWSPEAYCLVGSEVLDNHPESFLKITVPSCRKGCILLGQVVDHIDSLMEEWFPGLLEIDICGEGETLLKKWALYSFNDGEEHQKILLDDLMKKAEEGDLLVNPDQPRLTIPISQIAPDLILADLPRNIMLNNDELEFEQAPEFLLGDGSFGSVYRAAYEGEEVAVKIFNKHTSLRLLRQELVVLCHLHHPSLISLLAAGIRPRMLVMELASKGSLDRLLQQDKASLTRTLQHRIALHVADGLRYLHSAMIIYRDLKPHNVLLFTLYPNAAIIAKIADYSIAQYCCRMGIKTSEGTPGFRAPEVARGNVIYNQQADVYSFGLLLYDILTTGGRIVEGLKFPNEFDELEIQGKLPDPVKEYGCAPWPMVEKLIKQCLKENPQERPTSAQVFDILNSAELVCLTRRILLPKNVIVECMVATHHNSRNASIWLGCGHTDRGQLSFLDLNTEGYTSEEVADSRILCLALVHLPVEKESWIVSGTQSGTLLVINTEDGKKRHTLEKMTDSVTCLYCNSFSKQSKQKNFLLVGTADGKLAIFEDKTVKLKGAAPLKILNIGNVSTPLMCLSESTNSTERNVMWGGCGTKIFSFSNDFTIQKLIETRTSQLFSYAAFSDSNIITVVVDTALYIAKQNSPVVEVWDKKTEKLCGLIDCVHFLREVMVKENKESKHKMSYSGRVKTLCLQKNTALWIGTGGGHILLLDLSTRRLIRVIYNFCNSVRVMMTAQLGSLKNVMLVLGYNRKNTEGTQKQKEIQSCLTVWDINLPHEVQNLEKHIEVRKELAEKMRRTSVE

Structure (SMILES)	LRRK2 pIC50
FC(F)(F)c1cnc2nc1NC1CCC1COc1c(C3CCOC3)nn(C3CCC3)c1N2 [Ex-2.64, (10aR,12aR)-3-cyclobutyl-1-((R)-(10aR,12aR)-3-cyclobutyl-1-((S)-(10aS,12aS)-3-cyclobutyl-1-((R)-(10aS,12aS)-3-cyclobutyl-1-((S)-tetrahydrofuran-3-yl)-8-(trifluoromethyl)-3,4,10,10a,11,12,12a,13-octahydro-5,9-(azeno)cyclobuta[k]pyrazolo[4,3-b][1]oxa|4,6,10]triazacyclotridecine]	>10.09
FC(F)(F)c1cnc2nc1NC1CCC1COc1c(C3CCOC3)nn(C3CCC3)c1N2 [Ex-2.65, (10aR,12aR)-3-cyclobutyl-1-((R)-(10aR,12aR)-3-cyclobutyl-1-((S)-(10aS,12aS)-3-cyclobutyl-1-((R)-(10aS,12aS)-3-cyclobutyl-1-((S)-tetrahydrofuran-3-yl)-8-(trifluoromethyl)-3,4,10,10a,11,12,12a,13-octahydro-5,9-(azeno)cyclobuta[k]pyrazolo[4,3-b][1]oxa[4,6,10]triazacyclotridecine]	6.59
Cc1nn(C2CCC2)c2c1OC[C@@H]1COC[C@H]1Nc1nc(ncc1F)N2 [Ex-2.66, (10aS,13aS)-3-cyclobutyl-8-fluoro-1-methyl-3,4,10a,11,13a,14-hexahydro-10H,13H-5,9-(azeno)furo[3,4-k]pyrazolo[4,3-b][1]oxa[4,6,10]triazacyclotridecine]	8.43
CCOC(=O)Cc1nn(C2CC2)c2c1OC[C@@H]1COC[C@H]1Nc1nc(ncc1C(F)(F)F)N2 [Ex-2.67, ethyl 2-((10aS,13aS)-3-cyclopropyl-8-(trifluoromethyl)-3,4,10a,11,13a,14-hexahydro-10H,13H-5,9-(azeno)furo[3,4-k]pyrazolo[4,3-b][1]oxa[4,6,10]triazacyclotridecin-1-yl)acetate]	9.45
Cc1nn(C2CC2)c2c1OC[C@@H]1CC[C@H]1Nc1nc(ncc1C(F)(F)F)N2 [Ex-2.68, (10aR,12aR)-3-cyclopropyl-1-methyl-8-(trifluoromethyl)-3,4,10,10a,11,12,12a,13-octahydro-5,9-(azeno)cyclobuta[k]pyrazolo[4,3-b][1]oxa[4,6,10]triazacyclotridecine]	>10.09
Cn1cc(C2CC2c2nn(C3CCC3)c3c2OC[C@@H]2COC[C@H]2Nc2nc(ncc2C(F)(F)F)N3)cn1 (stereo partly drawn) [Ex-2.69, (10aS,13aS)-3-cyclobutyl-1-((1S,2S)- or (10aS,13aS)-3-cyclobutyl-1-((1R,2R)-2-(1-methyl-1H-pyrazol-4-yl)cyclopropyl)-8-(trifluoromethyl)-3,4,10a,11,13a,14-hexahydro-10H,13H-5,9-(azeno)furo[3,4-k]pyrazolo[4,3-b][1]oxa[4,6,10]triazacyclotridecine]	>10.09
Cn1cc(C2CC2c2nn(C3CCC3)c3c2OC[C@@H]2COC[C@H]2Nc2nc(ncc2C(F)(F)F)N3)cn1 (stereo partly drawn) [Ex-2.70, (10aS,13aS)-3-cyclobutyl-1-((1S,2S)- or (10aS,13aS)-3-cyclobutyl-1-((IR,2R)-2-(1-methyl-1H-pyrazol-4-yl)cyclopropyl)-8-(trifluoromethyl)-3,4,10a,11,13a,14-hexahydro-10H,13H-5,9-(azeno)furo[3,4-k]pyrazolo[4,3-b][1]oxa[4,6,10]triazacyclotridecine]	9.35
FC(F)(F)c1cnc2nc1NC1CCC1COc1c(C3COC3)nn(C3CCC3)c1N2 [Ex-2.71, (10aR,12aR)- or (10aS,12aS)-3-cyclobutyl-1-(oxetan-3-yl)-8-(trifluoromethyl)-3,4,10,10a,11,12,12a,13-octahydro-5,9-(azeno)cyclobuta[k]pyrazolo[4,3-b][1]oxa[4,6,10]triazacyclotridecine]	8.24
FC(F)(F)c1cnc2nc1NC1CCC1COc1c(C3COC3)nn(C3CCC3)c1N2 [Ex-2.72, (10aR,12aR)- or (10aS,12aS)-3-cyclobutyl-1-(oxetan-3-yl)-8-(trifluoromethyl)-3,4,10,10a,11,12,12a,13-octahydro-5,9-(azeno)cyclobuta[k]pyrazolo[4,3-b][1]oxa[4,6,10]triazacyclotridecine]	>10.09
Cc1nn(C2CCOC2)c2c1OC[C@@H]1CC[C@H]1Nc1nc(ncc1C(F)(F)F)N2 (stereo partly drawn) [Ex-2.74, (10aR,12aR)-1-methyl-3-((S)- or (10aR,12aR)-1-methyl-3-((R)-tetrahydrofuran-3-yl)-8-(trifluoromethyl)-3,4,10,10a,11,12,12a,13-octahydro-5,9-(azeno)cyclobuta[k]pyrazolo[4,3-b][1]oxa[4,6,10]triazacyclotridecine]	>10.09
Cn1nc(C(F)(F)F)c2c1Nc1ncc(Cl)c(n1)N[C@@H]1COC[C@H]1CO2 [Ex-2.75, (10aS,13aS)-8-chloro-3-methyl-1-(trifluoromethyl)-3,4,10a,11,13a,14-hexahydro-10H,13H-5,9-(azeno)furo[3,4-k]pyrazolo[4,3-b][1]oxa[4,6,10]triazacyclotridecine]	9.50
COC1CC(n2nc(C)c3c2Nc2ncc(Cl)c(n2)N[C@@H]2CC[C@H]2CO3)C1 (stereo partly drawn) [Ex-2.77, (10aR,12aR)-8-chloro-3-(3-methoxycyclobutyl)-1-methyl-3,4,10,10a,11,12,12a,13-octahydro-5,9-(azeno)cyclobuta[k]pyrazolo[4,3-b][1]oxa[4,6,10]triazacyclotridecine]	>10.09
COC1CC(n2nc(C)c3c2Nc2ncc(C(F)(F)F)c(n2)N[C@@H]2CC[C@H]2CO3)C1 (stereo partly drawn) [Ex-2.78, (10aR,12aR)-3-(3-methoxycyclobutyl)-1-methyl-8-(trifluoromethyl)-3,4,10,10a,11,12,12a,13-octahydro-5,9-(azeno)cyclobuta[k]pyrazolo[4,3-b][1]oxa[4,6,10]triazacyclotridecine]	>10.09
Cc1nn(C2CCC2)c2c1OC1COC[C@H]1CNc1nc(ncc1C(F)(F)F)N2 (stereo partly drawn) [Ex-2.79, (11aR,14aR)-3-cyclobutyl-1-methyl-8-(trifluoromethyl)-3,4,10,11,11a,12,14,14a-octahydro-5,9-(azeno)furo[3,4-1]pyrazolo [4,3-b][1]oxa[4,6,10]triazacyclotridecine (11aS,14aS)-3-cyclobutyl-1-methyl-8-(trifluoromethyl)-3,4,10,11,11a,12,14,14a-octahydro-5,9-(azeno)furo[3,4-1]pyrazolo[4,3-b][1]oxa[4,6,10]triazacyclotridecine]	6.87
Cc1nn(C2CCC2)c2c1OC1COC[C@H]1CNc1nc(ncc1C(F)(F)F)N2 (stereo partly drawn) [Ex-2.80, (11aR,14aR)-3-cyclobutyl-1-methyl-8-(trifluoromethyl)-3,4,10,11,11a,12,14,14a-octahydro-5,9-(azeno)furo[3,4-1]pyrazolo [4,3-b][1]oxa[4,6,10]triazacyclotridecine (11aS,14aS)-3-cyclobutyl-1-methyl-8-(trifluoromethyl)-3,4,10,11,11a,12,14,14a-octahydro-5,9-(azeno)furo[3,4-1]pyrazolo[4,3-b][1]oxa[4,6,10]triazacyclotridecine]	7.57
Cc1nn(C2CCC2)c2c1OC1COC[C@@H]1CNc1nc(ncc1Cl)N2 (stereo partly drawn) [Ex-2.83, (11aR,14aR)- or (11aS,14aS) 8-chloro-3-cyclobutyl-1-methyl-3,4,10,11,11a,12,14,14a-octahydro-5,9-(azeno)furo[3,4-1]pyrazolo[4,3-b][1]oxa[4,6,10]triazacyclotridecine]	5.76
Cc1nn(C2CCC2)c2c1OC1COC[C@@H]1CNc1nc(ncc1Cl)N2 (stereo partly drawn) [Ex-2.84, (11aR,14aR)- or (11aS,14aS) 8-chloro-3-cyclobutyl-1-methyl-3,4,10,11,11a,12,14,14a-octahydro-5,9-(azeno)furo[3,4-1]pyrazolo[4,3-b][1]oxa[4,6,10]triazacyclotridecine]	8.77
Cc1nn(C2CC2)c2c1O[C@@H]1CC[C@@H]1CNc1nc(ncc1C(F)(F)F)N2 [Ex-2.85, (11aR,13aR)- or (11aS,13aS)-3-cyclopropyl-1-methyl-8-(trifluoromethyl)-3,4,10,11,11a,12,13,13a-octahydro-5,9-(azeno)cyclobuta[I]pyrazolo[4,3-b][1]oxa[4,6,10]triazacyclotridecine]	8.74
Cc1nn(C2CC2)c2c1O[C@@H]1CC[C@@H]1CNc1nc(ncc1C(F)(F)F)N2 [Ex-2.86, (11aR,13aR)- or (11aS,13aS)-3-cyclopropyl-1-methyl-8-(trifluoromethyl)-3,4,10,11,11a,12,13,13a-octahydro-5,9-(azeno)cyclobuta[l]pyrazolo[4,3-b][1]oxa[4,6,10]triazacyclotridecine]	8.13
Cc1nn(C)c2c1OC[C@@H]1CCC(C1)Nc1nc(ncc1C(F)(F)F)N2 [Ex-2.87, (5^1S,5^3R)-1^1,1^3-dimethyl-3^5-(trifluoromethyl)-1^1H-7-oxa-2,4-diaza-3(2,4)-pyrimidina-1(5,4)-pyrazola-5(1,3)-cyclopentanacycloheptaphane]	6.84
Cc1nn(C)c2c1OC[C@H]1CCC(C1)Nc1nc(ncc1C(F)(F)F)N2 [Ex-2.88, (5^1R,5^3S)-1^1,1^3-dimethyl-3^5-(trifluoromethyl)-1^1H-7-oxa-2,4-diaza-3(2,4)-pyrimidina-1(5,4)-pyrazola-5(1,3)-cyclopentanacycloheptaphane]	7.64
Cc1nn(C2CCC2)c2c1OC[C@H]1CC(F)(F)C[C@@H]1Nc1nc(ncc1C(F)(F)F)N2 [Ex-4.1, 3-Cyclobutyl-12,12-difluoro-1-methyl-8-(trifluoromethyl)-3,4,10a,11,12,13,13a,14-octahydro-10H-5,9-(azeno)cyclopenta[k]pyrazolo[4,3-b][1]oxa[4,6,10]triazacyclotridecine]	6.25
Cc1nn(C2CCC2)c2c1OC[C@@H]1CC(F)(F)C[C@H]1Nc1nc(ncc1C(F)(F)F)N2 [Ex-4.2, 3-Cyclobutyl-12,12-difluoro-1-methyl-8-(trifluoromethyl)-3,4,10a,11,12,13,13a,14-octahydro-10H-5,9-(azeno)cyclopenta[k]pyrazolo[4,3-b][1]oxa[4,6,10]triazacyclotridecine]	9.51
